Measurements as given in ChEMBL document CHEMBL2057100, “The optimization of pyridazinone series of glucan synthase inhibitors” (Bioorg Med Chem Lett, 2012).
≈ marks a conversion by molar mass, not a printed value.

Experiments:
Beta-1,3-glucan synthase = biological target: T1, Beta-1,3-glucan synthase (Candida albicans, UniProt O13383); test: Inhibition of 1,3-beta-D-glucan synthase in Candida albicans BWP17 membranes; format: cell membranes
T1 sequence (O13383 whole entry): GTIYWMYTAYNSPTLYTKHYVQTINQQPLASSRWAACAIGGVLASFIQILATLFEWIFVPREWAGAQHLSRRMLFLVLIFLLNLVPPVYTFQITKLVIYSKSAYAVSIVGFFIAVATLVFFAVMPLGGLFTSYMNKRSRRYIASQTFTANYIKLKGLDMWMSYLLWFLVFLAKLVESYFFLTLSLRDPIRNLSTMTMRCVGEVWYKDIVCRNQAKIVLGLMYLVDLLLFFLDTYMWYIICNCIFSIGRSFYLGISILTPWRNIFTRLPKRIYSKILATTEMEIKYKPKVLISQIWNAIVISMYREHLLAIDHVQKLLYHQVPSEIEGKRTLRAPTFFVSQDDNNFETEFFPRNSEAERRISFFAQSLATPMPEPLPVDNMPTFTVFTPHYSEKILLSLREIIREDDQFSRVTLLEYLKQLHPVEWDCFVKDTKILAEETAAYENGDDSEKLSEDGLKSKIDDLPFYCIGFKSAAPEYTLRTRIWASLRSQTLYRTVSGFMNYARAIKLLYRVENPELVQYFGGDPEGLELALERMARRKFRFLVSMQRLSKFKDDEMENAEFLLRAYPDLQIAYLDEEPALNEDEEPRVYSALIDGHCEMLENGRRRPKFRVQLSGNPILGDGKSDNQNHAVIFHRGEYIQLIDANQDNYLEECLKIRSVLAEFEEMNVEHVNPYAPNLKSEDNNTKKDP

Nakaseomyces glabratus = test: Antifungal activity against Candida glabrata C624 by broth dilution method; format: functional; settings: read-out: MIC100
Candida albicans = test: Antifungal activity against Candida albicans C693 by broth dilution method; format: functional; settings: read-out: MIC100
Aspergillus fumigatus = test: Antifungal activity against Aspergillus fumigatus ND158 by broth dilution method; format: functional; settings: read-out: MEC

| Structure (SMILES) | IC50 (Beta-1,3-glucan synthase) [nM] | MIC (Nakaseomyces glabratus) [µg/mL] | MIC (Candida albicans) [µg/mL] | minimal effective concentration (Aspergillus fumigatus) [µg/mL] |
| --- | --- | --- | --- | --- |
| O=c1c(OCCc2ccccn2)c(N2CCN(S(=O)(=O)Cc3ccccc3)CC2)cnn1-c1cccc(Cl)c1 | 1060 | 0.39 (≈ 0.689 µM) | 6.25 (≈ 11 µM) | – |
| O=c1c(OC2CCCC2)c(N2CCN(S(=O)(=O)Cc3cc(C(F)(F)F)cc(C(F)(F)F)c3)CC2)cnn1-c1cccc(Cl)c1 | > 226000 | > 50 | > 50 | – |
| O=c1c(OC2CCCC2)c(N2CCN(S(=O)(=O)Cc3cccc(F)c3)CC2)cnn1-c1cc(F)cc(F)c1 | 72.9 | < 0.02 | 0.1 (≈ 0.182 µM) | – |
| O=c1c(OC2CCCC2)c(N2CCN(S(=O)(=O)Cc3ccccc3)CC2)cnn1-c1cccc(Cl)c1 | 378 | < 0.02 | 0.39 (≈ 0.737 µM) | – |
| O=c1c(OC2CCCC2)c(N2CCN(S(=O)(=O)Cc3ccccc3)CC2)cnn1-c1cc(F)cc(F)c1 | 56.5 | 0.4 (≈ 0.754 µM) | 0.39 (≈ 0.735 µM) | – |
| O=c1c(OC2CCCc3ncccc32)c(N2CCN(S(=O)(=O)Cc3ccccc3)CC2)cnn1-c1cccc(Cl)c1 (stereo not drawn) | 6760 | 1.6 (≈ 2.7 µM) | > 50 | – |
| O=c1c(OC2CCOCC2)c(N2CCN(S(=O)(=O)Cc3ccccc3)CC2)cnn1-c1cccc(Cl)c1 | 917 | 0.02 (≈ 0.0367 µM) | 3.13 (≈ 5.74 µM) | – |
| O=c1c(OC2CCCC2)c(N2CCN(S(=O)(=O)Cc3ccc(Cl)cc3)CC2)cnn1-c1cccc(Cl)c1 | 142 | 0.31 (≈ 0.55 µM) | 0.63 (≈ 1.12 µM) | – |
| O=c1c(OCC2(CF)CC2)c(N2CCN(S(=O)(=O)Cc3ccccc3)CC2)cnn1-c1cccc(Cl)c1 | 54.8 | < 0.02 | 0.2 (≈ 0.366 µM) | – |
| O=c1c(OC2CCCCC2)c(N2CCN(S(=O)(=O)Cc3ccccc3)CC2)cnn1-c1cccc(Cl)c1 | 1470 | < 0.02 | 0.78 (≈ 1.44 µM) | – |
| Nc1ccc(CS(=O)(=O)N2CCN(c3cnn(-c4cccc(Cl)c4)c(=O)c3OC3CCCC3)CC2)cc1 | 91.9 | 0.2 (≈ 0.368 µM) | 0.78 (≈ 1.43 µM) | – |
| O=c1c(OC2CCc3cccnc32)c(N2CCN(S(=O)(=O)Cc3ccccc3)CC2)cnn1-c1cccc(Cl)c1 (stereo not drawn) | 1380 | 0.78 (≈ 1.35 µM) | 12.5 (≈ 21.6 µM) | – |
| O=c1c(OC2CCCC2)c(N2CCN(S(=O)(=O)Cc3cccc(Cl)c3)CC2)cnn1-c1cccc(Cl)c1 | 160 | 0.05 (≈ 0.0887 µM) | 1.56 (≈ 2.77 µM) | – |
| O=c1c(OC2CCCC2)c(N2CCN(S(=O)(=O)Cc3ccccc3F)CC2)cnn1-c1cccc(Cl)c1 | 73.1 | 0.2 (≈ 0.366 µM) | 0.39 (≈ 0.713 µM) | – |
| CNc1ccc(CS(=O)(=O)N2CCN(c3cnn(-c4cccc(Cl)c4)c(=O)c3OCC3(C)CC3)CC2)cc1 | 17.9 | 0.78 (≈ 1.4 µM) | 0.2 (≈ 0.358 µM) | > 50 |
| CN(C)c1ccc(CS(=O)(=O)N2CCN(c3cnn(-c4cccc(Cl)c4)c(=O)c3OCC3(C)CC3)CC2)cc1 | 87.4 | 0.06 (≈ 0.105 µM) | 0.26 (≈ 0.454 µM) | 16.7 |
| O=C(O)c1ccc(CS(=O)(=O)N2CCN(c3cnn(-c4cccc(Cl)c4)c(=O)c3OC3CCCC3)CC2)cc1 | 4190 | 25 (≈ 43.6 µM) | > 50 | – |
| CC(C)(O)CCOc1c(N2CCN(S(=O)(=O)Cc3ccccc3)CC2)cnn(-c2cc(F)cc(F)c2)c1=O | 565 | 0.78 (≈ 1.42 µM) | 25 (≈ 45.6 µM) | – |
| O=c1c(OC2CCCC2)c(N2CCN(S(=O)(=O)Cc3ccc(F)cc3)CC2)cnn1-c1cccc(Cl)c1 | 110 | 0.05 (≈ 0.0914 µM) | 1.56 (≈ 2.85 µM) | – |
| CC1(COc2c(N3CCN(S(=O)(=O)Cc4ccccc4)CC3)cnn(-c3cccc(Cl)c3)c2=O)CC1 | 56.7 | < 0.02 | 0.1 (≈ 0.189 µM) | – |
| O=c1c(OC2CCCC2)c(N2CCN(S(=O)(=O)Cc3cc(Cl)cc(Cl)c3)CC2)cnn1-c1cccc(Cl)c1 | 351 | 0.39 (≈ 0.652 µM) | > 50 | – |
| O=c1c(OC2CCC(O)C2)c(N2CCN(S(=O)(=O)Cc3ccccc3)CC2)cnn1-c1cccc(Cl)c1 (stereo not drawn) | 1650 | 0.78 (≈ 1.43 µM) | 25 (≈ 45.9 µM) | – |
